Measured values taken from ChEMBL document CHEMBL1201862, “PubChem BioAssay data set” (2004).
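Method: 48-hour compound exposure of cells in 96-well plates, five concentrations, linear interpolation of endpoints. GI50 = concentration required for 50% inhibition of growth.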 Calls of active or inactive are those of the source. Rule as the data show it: active = GI50 up to about 1.1 µM and inactive = higher.

Assays:
Test in all cases: NCI tumour cell line growth inhibition, 48 h
786-0 = system: 786-0
IGROV-1 = system: IGROV-1
HOP-92 = system: HOP-92
NCI-H522 = system: NCI-H522
CAKI-1 = system: CAKI-1
OVCAR-3 = system: OVCAR-3
SNB-78 = system: SNB-78
UACC-257 = system: UACC-257
SNB-19 = system: SNB-19
A549 = system: A549
RXF 393 = system: RXF 393
UACC-62 = system: UACC-62
HT-29 = system: HT-29
SF-295 = system: SF-295
SK-MEL-2 = system: SK-MEL-2
KM12 = system: KM12
HOP-62 = system: HOP-62
NCI-H23 = system: NCI-H23
SK-MEL-5 = system: SK-MEL-5

Measured: GI50

Cc1c(C(=O)/C=C/c2c(Cl)cccc2Cl)c(=O)n(-c2ccccc2)n1C
inactive: 786-0 11.1 µM | IGROV-1 30.1 µM | HOP-92 17.6 µM | NCI-H522 12.8 µM | CAKI-1 19 µM | OVCAR-3 19.1 µM | SNB-78 6.24 µM | UACC-257 20.9 µM | SNB-19 31.9 µM | A549 15.1 µM | RXF 393 5.79 µM | UACC-62 21.6 µM | HT-29 18 µM | SF-295 26 µM | SK-MEL-2 26.1 µM | KM12 15.9 µM

C[S+](C)CCOC(=O)C(=[N+]=[N-])c1ccc([N+](=O)[O-])cc1
inactive: 786-0 > 100 µM | IGROV-1 > 100 µM | HOP-62 > 100 µM | NCI-H522 > 100 µM | CAKI-1 > 100 µM | OVCAR-3 > 100 µM | SNB-78 > 100 µM | UACC-257 > 100 µM | SNB-19 > 100 µM | A549 > 100 µM | RXF 393 > 100 µM | UACC-62 > 100 µM | NCI-H23 > 100 µM | HT-29 > 100 µM | SF-295 > 100 µM | SK-MEL-2 > 100 µM | KM12 > 100 µM | SK-MEL-5 > 100 µM

COC1OC(C)C(O)CC1OS(=O)(=O)c1ccc(C)cc1 (stereo not drawn)
inactive: 786-0 > 100 µM | IGROV-1 > 100 µM | HOP-92 > 100 µM | NCI-H522 > 100 µM | CAKI-1 > 100 µM | OVCAR-3 > 100 µM | SNB-78 > 100 µM | UACC-257 > 100 µM | SNB-19 > 100 µM | A549 > 100 µM | RXF 393 > 100 µM | UACC-62 > 100 µM | NCI-H23 > 100 µM | HT-29 > 100 µM | SF-295 > 100 µM | SK-MEL-2 > 100 µM | KM12 > 100 µM | SK-MEL-5 > 100 µM

CC(C)(C)c1cc(C(P(=O)(O)O)P(=O)(O)O)cc(C(C)(C)C)c1O
inactive: 786-0 > 100 µM | IGROV-1 > 100 µM | HOP-62 > 100 µM | HOP-92 > 100 µM | NCI-H522 > 100 µM | CAKI-1 > 100 µM | OVCAR-3 > 100 µM | SNB-78 > 100 µM | UACC-257 > 100 µM | SNB-19 > 100 µM | A549 > 100 µM | UACC-62 > 100 µM | NCI-H23 > 100 µM | HT-29 > 100 µM | SF-295 > 100 µM | SK-MEL-2 > 100 µM | KM12 > 100 µM | SK-MEL-5 > 100 µM

Nc1ccn(C2(CO)C=C(CO)C(O)C2O)c(=O)n1 (stereo not drawn)
inactive: 786-0 > 25.8 µM | IGROV-1 > 25.8 µM | HOP-62 > 25.8 µM | NCI-H522 > 25.8 µM | CAKI-1 > 25.8 µM | OVCAR-3 > 25.8 µM | SNB-78 > 25.8 µM | UACC-257 > 25.8 µM | SNB-19 > 25.8 µM | A549 > 25.8 µM | RXF 393 > 25.8 µM | UACC-62 > 25.8 µM | SK-MEL-2 > 25.8 µM | KM12 > 25.8 µM | SK-MEL-5 > 25.8 µM

COc1cc(O)c2c(c1)C(=O)C1=C(C2=O)C(O)C[C@@](C)(O)C1 (stereo partly drawn)
inactive: 786-0 3.08 µM | IGROV-1 1.79 µM | HOP-62 8.71 µM | CAKI-1 1.87 µM | SNB-78 1.9 µM | SNB-19 4.34 µM | A549 2.34 µM | RXF 393 1.32 µM | UACC-62 1.37 µM | NCI-H23 1.53 µM | SF-295 2.58 µM | SK-MEL-2 1.63 µM | KM12 2.47 µM
active: HOP-92 1.1 µM | NCI-H522 0.71 µM | OVCAR-3 0.822 µM | UACC-257 0.335 µM | HT-29 0.475 µM
